Results on 30 compounds are retold here after patent US4230850A, “3-Substituted-4-aminoalkoxy-5,6-condensed ring-2-pyranones” (LIPHA, Lyonnaise Industrielle Pharmaceutique, priority 1976, dated 1980).

For assay [1], the system named is femoral artery. Kind of assay: femoral artery rate of flow, electromagnetic flow meter, anaesthetised dog. Format: in vivo. The settings on record: dog anaesthetised with Pentobarbital, papaverine = 1. The source says:
The coefficients given in Table IV are expressed relatively to papaverine, which is given the coefficient 1, for the femoral dilation which it causes under similar conditions.

Assay [2] relates to phosphodiesterase of cyclic AMP. The assay is described as follows: inhibition of the phosphodiesterase of cyclic AMP in vitro. Details: unit not given beside the values. The settings on record: measured in vitro; unit not given. The class given is biochemical. The source says:
The compounds of the invention are capable of inhibiting the phosphodiesterase of cyclic AMP (adenosine monophosphate).
Table II gives the inhibition indices (ID50), measured in vitro, for some of the compounds of the invention.

For assay [3], the system named is vertebral rate of flow. Kind of assay: vertebral rate of flow in the anaesthetised dog. Format: in vivo. As to conditions: papaverine = 1. The procedure:
Likewise, the vasodilation produced by the compounds of the invention is measured by means of the vertebral rate of flow in the anaesthetised dog.

Assay [4] relates to intraventricular coronary artery. The assay is described as follows: rate of flow of the intraventricular coronary artery, electromagnetic flow meter, anaesthetised dog. The class given is in vivo. The settings on record: intravenous, Dipyridamol = 100. Here is the method: The rate of flow of the intraventricular coronary artery was measured with an electromagnetic flow meter on the anaesthetised dog.
The different test compounds, administered intravenously, have caused considerable increases in the rate of flow, as reported in Table I below (the standard used for comparison being 2,6-di-[di-(2-hydroxyethyl)amino]-4,8-dipiperidinopyrimido-[5,4-d]-pyrimidine, which has the B.P.C. approved name of "Dipyridamole").

Assay [5] concerns citric acid aerosol cough. Kind of assay: citric acid aerosol test on the guinea pig (anti-tussive). The settings on record: administered in equitoxic dose per os. The class given is in vivo. An excerpt: The compounds of the invention were compared with codeine.
In assay [6] the test system is mice placed in a confined atmosphere. Kind of assay: protection against anoxia: survival time of mice placed in a confined atmosphere. The class given is in vivo, mouse. As to conditions: oral. The source says: As well as the vasodilatory activity, a strong protective action against the effects of anoxia has been found for the compounds of the invention. By way of example, Table VI indicates as a percentage the increase in the survival time caused by oral administration of certain compounds to mice placed in a confined atmosphere.

For assay [7], the system named is rats made hypertensive by the Goldblatt technique. The assay is described as follows: decrease in hypertension in rats made hypertensive by the Goldblatt technique. The settings on record: oral, (HS) or (S) given after value, not defined. The class given is in vivo, rat. The procedure: Anti-hypertensive (hypotensive) activity has been found with the compounds of the invention. With rats made hypertensive by the Goldblatt technique (M. GOLDBLATT, J. LUNCH, R. F. MANZAL and W. W. SUMMERVILLE, J. of Exper. Med. 1934, 59, 347-379), decreases in hypertension were recorded after oral administration of the test compound. By way of example, Table III gives the decreases obtained with some of the compounds.

`CN(C)CCCOc1c(-c2ccccc2)c(=O)oc2ccccc12` [Example 4, 4-(3'-Dimethylaminopropoxy)-3-phenyl-coumarin]: in assay [1], the “Coefficient/Papaverine (femoral dilation)” value is listed as 60. Besides, in assay [2], the “ID50 (inhibition indices)” value turned out to be 150. For the same compound, the “Coefficient/Papaverine (vertebral rate of flow)” value in assay [3] is listed as 6.

Turning to `Cc1ccc2oc(=O)c(-c3ccccc3)c(OCCN3CCOCC3)c2c1` [Example 12, 6-Methyl-4-(2'-morpholinoethoxy)-3-phenyl-coumarin], the “Coefficient related to Dipyridamol” value in assay [4] was 150. Regarding `COc1ccc2c3c1O[C@H]1[C@@H](O)C=C[C@H]4[C@@H](C2)N(C)CC[C@@]341` [Codeine, reference compound], the “% inhibition on average of number of coughs” value (shortened to “% inhibition on average”) in assay [5] was 55%.

Turning to `O=c1oc2c(c(OCCN3CCOCC3)c1-c1ccccc1)CCCC2` [drawing 49], in assay [5], the “% inhibition on average” value was determined as 85%. In the case of `Cc1c(OCCN2CCOCC2)c2ccccc2oc1=O` [Example 9, 3-Methyl-4-(2'-morpholinoethoxy)-coumarin], the “Average % increase in survival time” value in assay [6] is listed as “+30%”. For the compound `O=c1oc2ccccc2c(OCC(O)CN2CCCCC2)c1-c1ccccc1` (stereo not drawn) [Example 37, 4-(3'-Piperidino-2'-hydroxypropoxy)-3-phenyl-coumarin], in assay [1], the “Coefficient/Papaverine (femoral dilation)” value amounted to 12. The “Coefficient/Papaverine (vertebral rate of flow)” value in assay [3] is on record as 9. Take `O=c1oc2c(c(OCCN3CCOCC3)c1-c1ccccc1)CCc1ccccc1-2` [Example 44, 4-(2'-Morpholinoethoxy)-3-phenyl-5,6-dihydro-[h]-benzocoumarin]: in assay [5], the “% inhibition on average” value turned out to be 48%. In the case of `CN1CCN(CCCOc2c(-c3ccccc3)c(=O)oc3ccccc23)CC1` [Example 27, 4-[3-(4"-Methyl-1"-piperazinyl)-propoxy]-3-phenyl-coumarin], the “Coefficient/Papaverine (vertebral rate of flow)” value in assay [3] is reported as 3.

Take `O=c1oc2ccccc2c(OCCN2CCOCC2)c1-c1ccc(F)cc1` [Example 11, 3-(4'-Fluorophenyl)-4-(2"-morpholinoethoxy)-coumarin]: the “Average % increase in survival time” value in assay [6] was “+45%”.

On to `COc1ccc2c(OCCN3CCOCC3)c(-c3ccccc3)c(=O)oc2c1` [Example 20, 7-Methoxy-4-(2'-morpholinoethoxy)-3-phenyl-coumarin], for which, in assay [1], the “Coefficient/Papaverine (femoral dilation)” value is 12. In the case of `COc1ccc(Cc2nccc3cc(OC)c(OC)cc23)cc1OC` [Papaverine, reference compound], the “Coefficient/Papaverine (femoral dilation)” value in assay [1] is reported as 1. Besides, in assay [3], the “Coefficient/Papaverine (vertebral rate of flow)” value amounted to 1. Consider `O=c1oc2c(c(OCCN3CCOCC3)c1-c1ccccc1)CCCC2` [Example 14, 4-(2'-Morpholinoethoxy)-3-phenyl-5,6,7,8-tetrahydro-coumarin], for which the “Average % increase in survival time” value in assay [6] is “+50%”. For `CCCCc1c(OCCN2CCOCC2)c2c(OCCN3CCOCC3)cc(OCCN3CCOCC3)cc2oc1=O` [Example 5, 3-Butyl-4,5,7-tri(2'-morpholinoethoxy)-coumarin], in assay [3], the “Coefficient/Papaverine (vertebral rate of flow)” value was determined as 2. For the compound `O=c1oc2c(c(OCCN3CCOCC3)c1-c1ccccc1)-c1ccccc1C2c1ccccc1` (stereo not drawn) [Example 45, 4-(2'-Morpholinoethoxy)-3,9-diphenyl-[2-1-b]-indeno-[2H]-pyran-2-one], the “Coefficient/Papaverine (femoral dilation)” value in assay [1] is given as 60. Further, the “Decrease in hypertension in mm.Hg., 3 to 5 hours after administration” value (shortened to “Decrease in hypertension”) in assay [7] is given as -49 mm.Hg. `OCCN(CCO)c1nc(N2CCCCC2)c2nc(N(CCO)CCO)nc(N3CCCCC3)c2n1` [Dipyridamol, 2,6-di-[di-(2-hydroxyethyl)amino]-4,8-dipiperidinopyrimido-[5,4-d]-pyrimidine, reference compound]: the “Coefficient related to Dipyridamol” value in assay [4] stood at 100. Consider `O=c1oc2ccccc2c(OCCN2CCCCC2)c1-c1ccccc1` [Example 3, 4-(2'-Piperidinoethoxy)-3-phenyl-coumarin], for which the “ID50 (inhibition indices)” value in assay [2] was 150. As to `CC(COc1c(-c2ccccc2)c(=O)oc2ccccc12)CN1CCOCC1` (stereo not drawn) [Example 19, 4-(3'-Morpholino-2'-methylpropoxy)-3-phenyl-coumarin], the “Average % increase in survival time” value in assay [6] is listed as “+46%”. Also, in assay [2], the “ID50 (inhibition indices)” value turned out to be 600. In addition, the “Decrease in hypertension” value in assay [7] is listed as -18 mm.Hg. The “Coefficient/Papaverine (vertebral rate of flow)” value in assay [3] is listed as 3. As to `Cc1ccc2oc(=O)c(-c3ccccc3)c(OCCCN3CCOCC3)c2c1`, the “Coefficient related to Dipyridamol” value in assay [4] was 100. Turning to `O=c1oc2cccc(OCCN3CCOCC3)c2c(OCCN2CCOCC2)c1-c1ccccc1` [Example 23, Bis-4,5-(2'-morpholinoethoxy)-3-phenyl-coumarin], the “Coefficient/Papaverine (femoral dilation)” value in assay [1] worked out at 6. Besides, the “Coefficient related to Dipyridamol” value in assay [4] came to 300. Further, in assay [3], the “Coefficient/Papaverine (vertebral rate of flow)” value was determined as 4.5. With `CC(COc1c2c(oc(=O)c1-c1ccccc1)CCCCCC2)CN1CCOCC1` (stereo not drawn) [Example 51, 4-(3'-Morpholino-2'-methylpropoxy)-3-phenyl[1-2-b]-cyclooctano-(2H)-pyran-2-one], the “% inhibition on average” value in assay [5] is listed as 60%. As to `O=c1oc2cccc(O)c2c(OCCN2CCOCC2)c1-c1ccccc1` [Example 30, 4-(2'-Morpholinoethoxy)-5-hydroxy-3-phenyl-coumarin], the “% inhibition on average” value in assay [5] worked out at 47%. Also, the “Average % increase in survival time” value in assay [6] is listed as “+65%”.

On to `O=c1oc2c(c(OCCN3CCOCC3)c1-c1ccccc1)CCCC2` [drawing 39], for which the “Coefficient/Papaverine (vertebral rate of flow)” value in assay [3] is recorded as 5.5. `O=c1oc2c(O)cccc2c(OCCN2CCOCC2)c1-c1ccccc1` [Example 35, 8-Hydroxy-4-(2'-morpholinoethoxy)-3-phenyl-coumarin]: the “Coefficient/Papaverine (femoral dilation)” value in assay [1] was determined as 8. For the same compound, the “Decrease in hypertension” value in assay [7] was -44 mm.Hg. In assay [3], the “Coefficient/Papaverine (vertebral rate of flow)” value was 10.

For the compound `O=c1oc2c(c(OCCCN3CCOCC3)c1-c1ccccc1)CCCC2` [Example 47, 4-(3'-Morpholinopropoxy)-3-phenyl-5,6,7,8-tetrahydrocoumarin], in assay [2], the “ID50 (inhibition indices)” value worked out at 200. `O=c1oc2c(c(OCCN3CCOCC3)c1-c1ccccc1)CCCC2` [drawing 27]: the “Coefficient/Papaverine (femoral dilation)” value in assay [1] is listed as 12. Consider `COc1cccc2c(OCCN3CCOCC3)c(-c3ccccc3)c(=O)oc12` [Example 21, 8-Methoxy-4-(2'-morpholinoethoxy)-3-phenyl-coumarin], for which the “Coefficient/Papaverine (femoral dilation)” value in assay [1] amounted to 13. Moreover, the “Coefficient/Papaverine (vertebral rate of flow)” value in assay [3] is given as 5.

In the case of `O=c1oc2ccccc2c(OCCCN2CCOCC2)c1-c1ccccc1` [Example 16, 4-(3'-Morpholinopropoxy)-3-phenyl-coumarin], the “Coefficient related to Dipyridamol” value in assay [4] turned out to be 250.

With `CC(COc1c2c(oc(=O)c1-c1ccccc1)CCCC2)CN1CCOCC1` (stereo not drawn) [Example 46, 4-(3'-Morpholino-2'-methylpropoxy)-3-phenyl-5,6,7,8-tetrahydrocoumarin], the “Average % increase in survival time” value in assay [6] is listed as “+40%”. The “ID50 (inhibition indices)” value in assay [2] is 600.

For the compound `O=c1oc2ccccc2c(OCCN2CCOCC2)c1-c1ccc(Br)cc1` [Example 7, 3-(4'-Bromophenyl)-4-(2"-morpholinoethoxy)-coumarin], in assay [6], the “Average % increase in survival time” value is “+50%”.

`O=c1oc2ccccc2c(OCCN2CCOCC2)c1-c1ccccc1` [Example 2, 4-(2'-Morpholinoethoxy)-3-phenyl-coumarin]: in assay [6], the “Average % increase in survival time” value was “+41%”. Further, the “Coefficient related to Dipyridamol” value in assay [4] was determined as 150. Also, the “Decrease in hypertension” value in assay [7] is -34 mm.Hg. Further, the “Coefficient/Papaverine (vertebral rate of flow)” value in assay [3] turned out to be 2.
